The test system of one assay is BMSC (primary human bone marrow mesenchymal stromal cells). Description: absolute EC50 for viability; higher = less sensitive.
For the compound `Cn1cc(C2=Nc3cc(NC(=O)C(N)C4CCCCC4)cc4c3C2=CNNC4=O)cn1` (stereo unspecified), the “absolute EC50 for viability” value was 1.43 µM.
As to `Cc1[nH]nc(C(F)(F)F)c1Cc1sc2c(c1C(=O)N1C[C@](C)(O)CO1)c(=O)n(C)c(=O)n2C(C)C` [AZD3965], the “absolute EC50 for viability” value was more than 1 µM.
Same read-out and setting: the same measure for `C[C@H]1CN(C2COC2)CCN1c1ccc(Nc2cc(-c3ccnc(N4CCn5c(cc6c5CC(C)(C)C6)C4=O)c3CO)cn(C)c2=O)nc1` [GDC-0853]: more than 1 µM; for `O=C(Nc1ccncc1)C(=O)c1cn(Cc2ccc(Cl)cc2)c2ccccc12` [Indibulin]: more than 10 µM.
The same measure, in the same setting: the figure for `O=C(NOC[C@H](O)CO)c1ccc(F)c(F)c1Nc1ccc(I)cc1F` [Mirdametinib] is more than 1 µM.
With `Cc1nc(Nc2n[nH]c3c2CN(C(=O)N[C@H](CN(C)C)c2ccccc2)C3(C)C)c2sccc2n1`, the “absolute EC50 for viability” value was determined as 2.86 µM.
`NC(=O)/C(=C/n1cnc(-c2cc(C(F)(F)F)cc(C(F)(F)F)c2)n1)c1cncnc1` [Eltanexor]: the “absolute EC50 for viability” value was more than 10 µM.
Still for that read-out and setting: the figure for `Cc1ccc(-n2nc(C(C)(C)C)cc2NC(=O)Nc2ccc(OCCN3CCOCC3)c3ccccc23)cc1` [Doramapimod] is more than 10 µM; for `Cc1cc2c(C(C)C)c(O)c(O)c(C=O)c2c(O)c1-c1c(C)cc2c(C(C)C)c(O)c(O)c(C=O)c2c1O` [AT 101] it is 28.1 µM.
On the same count and under the same terms, the figure for `COc1cc2c(cc1OC(C)C)[C@H](c1ccc(Cl)cc1)N(c1ccc(N(C)C[C@H]3CC[C@H](N4CCN(C)C(=O)C4)CC3)cc1)C(=O)C2` [NVP-CGM097] is 4.61 µM; for `O=C(Nc1nc2cccc(-c3ccc(CN4CCS(=O)(=O)CC4)cc3)n2n1)C1CC1` [Filgotinib] it is more than 10 µM; for `Cn1nnc2c(C(N)=O)ncn2c1=O` [Temozolomide] it is more than 100 µM.
Same read-out and setting: the figure for `CCCCc1nc2cc(/C=C/C(=O)NO)ccc2n1CCN(CC)CC` [Pracinostat] is 1.56 µM; for `Cn1cc(C2=C(c3cn(C4CCN(Cc5ccccn5)CC4)c4ccccc34)C(=O)NC2=O)c2ccccc21` [Enzastaurin] it is more than 10 µM; for `Nc1ccccc1NC(=O)c1ccc(CNc2nccc(-c3cccnc3)n2)cc1` [Mocetinostat] it is more than 10 µM.
Turning to `CC(C)N(CCCNC(=O)Nc1ccc(C(C)(C)C)cc1)C[C@H]1O[C@@H](n2cc(Br)c3c(N)ncnc32)[C@H](O)[C@@H]1O` [SGC0946], the “absolute EC50 for viability” value was more than 10 µM.
Still for that read-out and setting: the figure for `O=C(O)CC[C@H]1CC[C@@](c2cc(F)ccc2F)(S(=O)(=O)c2ccc(Cl)cc2)CC1` [MK-0752] is more than 1 µM.
As for `CCOc1ccn(-c2ccc(F)cc2)c(=O)c1C(=O)Nc1ccc(Oc2ccnc(N)c2Cl)c(F)c1`, the “absolute EC50 for viability” value is more than 2.5 µM.
On the same count and under the same terms, the same measure for `O=C(/C=C\n1cnc(-c2cc(C(F)(F)F)cc(C(F)(F)F)c2)n1)NNc1ccccn1` [Verdinexor]: more than 1 µM; for `COc1c(C)cnc(Cn2cnc3c(Cl)nc(N)nc32)c1C` [BIIB021]: 0.449 µM.
Same read-out and setting: the same measure for `O=C1CCC(N2C(=O)c3ccccc3C2=O)C(=O)N1` (stereo unspecified) [Thalidomide]: more than 10 µM; for `NC[C@@](O)(c1ccc(Cl)cc1)c1ccc(-c2cn[nH]c2)cc1`: more than 10 µM.
Still for that read-out and setting: the figure for `CN(C)C(=O)c1cc2cnc(Nc3ccc(N4CCNCC4)cn3)nc2n1C1CCCC1` [Ribociclib] is more than 10 µM; for `COc1cc(Nc2c(C#N)cnc3cc(OCCCN4CCN(C)CC4)c(OC)cc23)c(Cl)cc1Cl` [Bosutinib] it is 1.69 µM.
Take `N#Cc1ccc(C(c2ccc(C#N)cc2)n2cncn2)cc1` [Letrozole]: the “absolute EC50 for viability” value is more than 10 µM.
As for `CNC(=O)c1cc(Oc2ccc(NC(=O)Nc3ccc(Cl)c(C(F)(F)F)c3)cc2)ccn1` [Sorafenib], the “absolute EC50 for viability” value was more than 1 µM.
Same read-out and setting: the same measure for `Cn1cc(CNCC2CCN(c3ncc(C(=O)NO)cn3)CC2)c2ccccc21` [Quisinostat]: 0.181 µM; for `CC(C)(C#N)c1cc(Cn2cncn2)cc(C(C)(C)C#N)c1` [Anastrozole]: more than 10 µM.
As for `CNS(=O)(=O)Nc1nccc(Cc2c(C)c3ccc(Oc4ncccn4)cc3oc2=O)c1F`, the “absolute EC50 for viability” value is more than 1 µM.
Still for that read-out and setting: the figure for `CC#CC(=O)N1CCC[C@H]1c1nc(-c2ccc(C(=O)Nc3ccccn3)cc2)c2c(N)nccn12` [Acalabrutinib] is more than 1 µM; for `Nc1nc2[nH]cnc2c(=S)[nH]1` [Thioguanine] it is 1.18 µM.
Turning to `O=C(O)CNC(=O)c1c(O)c2ccccc2n(Cc2ccccc2)c1=O` [IOX-2], the “absolute EC50 for viability” value was more than 50 µM.
Turning to `Nc1nc2cc(-c3ccc4ncc(C(=O)N5CCOCC5)n4c3)ccc2o1` [Serabelisib], the “absolute EC50 for viability” value was more than 10 µM.
Regarding `Cc1nc2cccc(N)c2c(=O)n1C1CCC(=O)NC1=O` (stereo unspecified) [CC122], the “absolute EC50 for viability” value turned out to be 9.93 µM.
Take `COc1cc2c(Oc3ccc4[nH]c(C)cc4c3F)ncnc2cc1OCCCN1CCCC1` [Cediranib]: the “absolute EC50 for viability” value is more than 1 µM.
Still for that read-out and setting: the same measure for `Cc1cc(C)c(CNC(=O)c2cc(-c3ccc(CN4CCOCC4)cc3)cc3c2cnn3C2CCCC2)c(=O)[nH]1` [EPZ-5687]: 9.93 µM; for `Cc1cc2c(C(=O)NC[C@H](C)c3ccccc3)c(O)c(O)cc2c(O)c1-c1c(C)cc2c(C(=O)NC[C@H](C)c3ccccc3)c(O)c(O)cc2c1O` [Sabutoclax]: 7.71 µM.
On the same count and under the same terms, the figure for `CC[C@H](C)C(=O)O[C@H]1C[C@H](O)C=C2C=C[C@H](C)[C@H](CC[C@@H](O)C[C@@H](O)CC(=O)O)[C@H]21` [Pravastatin] is more than 10 µM.

For the next assay the test system is unchanged. Description: drug sensitivity score (DSS); higher = more sensitive.
On to `Cn1cc(C2=Nc3cc(NC(=O)C(N)C4CCCCC4)cc4c3C2=CNNC4=O)cn1` (stereo unspecified), for which the drug sensitivity score came to 9.2.
The compound `Cc1[nH]nc(C(F)(F)F)c1Cc1sc2c(c1C(=O)N1C[C@](C)(O)CO1)c(=O)n(C)c(=O)n2C(C)C` [AZD3965] yielded a drug sensitivity score of 0.
On the same count and under the same terms, the same measure for `C[C@H]1CN(C2COC2)CCN1c1ccc(Nc2cc(-c3ccnc(N4CCn5c(cc6c5CC(C)(C)C6)C4=O)c3CO)cn(C)c2=O)nc1` [GDC-0853]: 0; for `O=C(Nc1ccncc1)C(=O)c1cn(Cc2ccc(Cl)cc2)c2ccccc12` [Indibulin]: 0; for `O=C(NOC[C@H](O)CO)c1ccc(F)c(F)c1Nc1ccc(I)cc1F` [Mirdametinib]: 2.1.
Same read-out and setting: the same measure for `Cc1nc(Nc2n[nH]c3c2CN(C(=O)N[C@H](CN(C)C)c2ccccc2)C3(C)C)c2sccc2n1`: 7.4.
The same measure, in the same setting: the figure for `NC(=O)/C(=C/n1cnc(-c2cc(C(F)(F)F)cc(C(F)(F)F)c2)n1)c1cncnc1` [Eltanexor] is 9.6; for `Cc1ccc(-n2nc(C(C)(C)C)cc2NC(=O)Nc2ccc(OCCN3CCOCC3)c3ccccc23)cc1` [Doramapimod] it is 1; for `Cc1cc2c(C(C)C)c(O)c(O)c(C=O)c2c(O)c1-c1c(C)cc2c(C(C)C)c(O)c(O)c(C=O)c2c1O` [AT 101] it is 6.1.
As for `COc1cc2c(cc1OC(C)C)[C@H](c1ccc(Cl)cc1)N(c1ccc(N(C)C[C@H]3CC[C@H](N4CCN(C)C(=O)C4)CC3)cc1)C(=O)C2` [NVP-CGM097], the drug sensitivity score worked out at 9.2.
Still for that read-out and setting: the figure for `O=C(Nc1nc2cccc(-c3ccc(CN4CCS(=O)(=O)CC4)cc3)n2n1)C1CC1` [Filgotinib] is 2.3.
On the same count and under the same terms, the figure for `Cn1nnc2c(C(N)=O)ncn2c1=O` [Temozolomide] is 0.
Still for that read-out and setting: the same measure for `CCCCc1nc2cc(/C=C/C(=O)NO)ccc2n1CCN(CC)CC` [Pracinostat]: 8.8; for `Cn1cc(C2=C(c3cn(C4CCN(Cc5ccccn5)CC4)c4ccccc34)C(=O)NC2=O)c2ccccc21` [Enzastaurin]: 0.
`Nc1ccccc1NC(=O)c1ccc(CNc2nccc(-c3cccnc3)n2)cc1` [Mocetinostat] came in with a drug sensitivity score of 4.7.
On the same count and under the same terms, the same measure for `CC(C)N(CCCNC(=O)Nc1ccc(C(C)(C)C)cc1)C[C@H]1O[C@@H](n2cc(Br)c3c(N)ncnc32)[C@H](O)[C@@H]1O` [SGC0946]: 2.1; for `O=C(O)CC[C@H]1CC[C@@](c2cc(F)ccc2F)(S(=O)(=O)c2ccc(Cl)cc2)CC1` [MK-0752]: 0.
For `CCOc1ccn(-c2ccc(F)cc2)c(=O)c1C(=O)Nc1ccc(Oc2ccnc(N)c2Cl)c(F)c1`, the drug sensitivity score is 0.
`O=C(/C=C\n1cnc(-c2cc(C(F)(F)F)cc(C(F)(F)F)c2)n1)NNc1ccccn1` [Verdinexor]: the drug sensitivity score was 1.6.
On the same count and under the same terms, the figure for `COc1c(C)cnc(Cn2cnc3c(Cl)nc(N)nc32)c1C` [BIIB021] is 12; for `O=C1CCC(N2C(=O)c3ccccc3C2=O)C(=O)N1` (stereo unspecified) [Thalidomide] it is 0; for `NC[C@@](O)(c1ccc(Cl)cc1)c1ccc(-c2cn[nH]c2)cc1` it is 3.3.
Still for that read-out and setting: the figure for `CN(C)C(=O)c1cc2cnc(Nc3ccc(N4CCNCC4)cn3)nc2n1C1CCCC1` [Ribociclib] is 2.2; for `COc1cc(Nc2c(C#N)cnc3cc(OCCCN4CCN(C)CC4)c(OC)cc23)c(Cl)cc1Cl` [Bosutinib] it is 8.8.
Compound `N#Cc1ccc(C(c2ccc(C#N)cc2)n2cncn2)cc1` [Letrozole] yielded a drug sensitivity score of 0.
Consider `CNC(=O)c1cc(Oc2ccc(NC(=O)Nc3ccc(Cl)c(C(F)(F)F)c3)cc2)ccn1` [Sorafenib], for which the drug sensitivity score worked out at 0.
On the same count and under the same terms, the same measure for `Cn1cc(CNCC2CCN(c3ncc(C(=O)NO)cn3)CC2)c2ccccc21` [Quisinostat]: 8.3.
The compound `CC(C)(C#N)c1cc(Cn2cncn2)cc(C(C)(C)C#N)c1` [Anastrozole] came in with a drug sensitivity score of 0.
On the same count and under the same terms, the same measure for `CNS(=O)(=O)Nc1nccc(Cc2c(C)c3ccc(Oc4ncccn4)cc3oc2=O)c1F`: 0; for `CC#CC(=O)N1CCC[C@H]1c1nc(-c2ccc(C(=O)Nc3ccccn3)cc2)c2c(N)nccn12` [Acalabrutinib]: 0.
Compound `Nc1nc2[nH]cnc2c(=S)[nH]1` [Thioguanine] came in with a drug sensitivity score of 9.2.
In turn, `O=C(O)CNC(=O)c1c(O)c2ccccc2n(Cc2ccccc2)c1=O` [IOX-2] gave a drug sensitivity score of 1.9.
Same read-out and setting: the figure for `Nc1nc2cc(-c3ccc4ncc(C(=O)N5CCOCC5)n4c3)ccc2o1` [Serabelisib] is 3.3.
On the same count and under the same terms, the same measure for `Cc1nc2cccc(N)c2c(=O)n1C1CCC(=O)NC1=O` (stereo unspecified) [CC122]: 0.
The same measure, in the same setting: the same measure for `COc1cc2c(Oc3ccc4[nH]c(C)cc4c3F)ncnc2cc1OCCCN1CCCC1` [Cediranib]: 2.5; for `Cc1cc(C)c(CNC(=O)c2cc(-c3ccc(CN4CCOCC4)cc3)cc3c2cnn3C2CCCC2)c(=O)[nH]1` [EPZ-5687]: 0.
On to `Cc1cc2c(C(=O)NC[C@H](C)c3ccccc3)c(O)c(O)cc2c(O)c1-c1c(C)cc2c(C(=O)NC[C@H](C)c3ccccc3)c(O)c(O)cc2c1O` [Sabutoclax], for which the drug sensitivity score was determined as 5.6.
The same measure, in the same setting: the figure for `CC[C@H](C)C(=O)O[C@H]1C[C@H](O)C=C2C=C[C@H](C)[C@H](CC[C@@H](O)C[C@@H](O)CC(=O)O)[C@H]21` [Pravastatin] is 0.

These data come from the supplement of paper PMC9103864.
